The target of series [1] is T1, hERG (Homo sapiens, UniProt Q12809).
T1 construct: host or cells: CHO cells stably transfected with hERG
As to the kind of experiment: hERG automated patch clamp (IonWorks, CHO-hERG cells). The format is cell-based. To be noted: CHO cells stably transfected with hERG, top concentration 25 µM. The procedure: Physicochemical and ADMET properties of representative glycomimetics. […] The final incubation volume is 50 µL. […] Two control compounds are included with each species. All incubations are performed singularly for each test compound. […] The control (minus NADPH) is incubated for 45 min. […] The cells are then positioned over a small hole at the bottom of each well by applying a vacuum beneath the plate to form an electrical seal. The vacuum is applied through a single compartment common to all wells which is filled with intracellular solution (buffered to pH 7.2 with HEPES). The resistance of each seal is measured via a common ground-electrode in the intracellular compartment and individual electrodes placed into each of the upper wells. Electrical access to the cell is then achieved by circulating a perforating agent, amphotericin B, underneath the PatchPlateTM. The pre-compound hERG current is then measured. An electrode is positioned in the extracellular compartment and a holding potential of -80 mV applied for 15 s. The hERG channels are then activated by applying a depolarising step to +40 mV for 5 s and then clamped at -50 mV for 4 s to elicit the hERG tail current, before returning to -80 mV for 0.3 s. […]

A short description of series [2]: Caco-2 permeability (bi-directional). The series is classed as in vitro ADME. Conditions: human, Caco-2; A2B, 10 µM, 120 min. The protocol:
(§1) Physicochemical and ADMET properties of representative glycomimetics. […]
(§2) ymax = mean vehicle control response
(§3) Caco-2 Permeability (A-B or Bi-directional)
(§4) Caco-2 cells (ATCC, Virginia, USA) are used between passage numbers 40-60. Cells are seeded onto Millipore Multiscreen Transwell plates at 1 x 10^5 cells/cm2. The cells are cultured in DMEM and media is changed every two or three days. On day 20 the permeability study is performed. Cell culture and assay incubations are carried out at 37 °C in an atmosphere of 5 % CO2 with a relative humidity of 95%. On the day of the assay, the monolayers are prepared by rinsing both apical and basolateral surfaces twice with Hanks Balanced Salt Solution (HBSS) at the desired pH warmed to 37 °C. Cells are then incubated with HBSS at the desired pH in both apical and basolateral compartments for 40 min to stabilise physiological […]
(§5) The dosing solutions are prepared by diluting test compound with assay buffer to give a final test compound concentration of 10 µM (final DMSO concentration of 1 % v/v). The fluorescent integrity marker lucifer yellow is also included in the dosing solution. Analytical standards are prepared from test compound DMSO dilutions and transferred to buffer, maintaining a 1% v/v DMSO concentration. Typical assay buffer is composed of supplemented HBSS pH 7.4 but a range of other buffers and pH values can be used.
(§6) For assessment of A-B permeability, HBSS is removed from the apical compartment and replaced with test compound dosing solution. The apical compartment insert is then placed into a companion plate containing fresh buffer (containing 1 % v/v DMSO). For assessment of B-A permeability, HBSS is removed from the companion plate and replaced with test compound dosing solution. Fresh buffer (containing 1 % v/v DMSO) is added to the apical compartment insert, which is then placed into the companion plate.
(§7) At 120 min the apical compartment inserts and the companion plates are separated and apical and basolateral samples diluted for analysis. Test compound permeability is assessed in duplicate. Compounds of known permeability characteristics are run as controls on each assay plate. Test and control compounds are quantified by LC-MS/MS cassette analysis using an 8-point calibration with appropriate dilution of the samples. The starting concentration (C0) is determined from the dosing solution and the experimental recovery calculated from C0 and both apical and basolateral compartment concentrations.
(§8) The integrity of the monolayer throughout the experiment is checked by monitoring lucifer yellow permeation using fluorimetric analysis. Lucifer yellow permeation is high if monolayers have been damaged. If a lucifer yellow Papp value is above a pre-defined threshold in one individual test compound well, the compound may be re-tested or an n = 1 result is reported.
(§9) If lucifer yellow Papp values are above the threshold in both replicate wells for a test compound, the compound is re-tested. If this re-occurs upon repeat in both wells then toxicity or inherent fluorescence of the test compound is assumed.
(§10) The permeability coefficient (Papp) for each compound is calculated from the following […]
(§11) Where dQ/dt is the rate of permeation of the drug across the cells, C0 is the donor compartment concentration at time zero and A is the area of the cell monolayer. C0 is obtained from analysis […]
(§12) For bi-directional experiments, an efflux ratio (ER) is calculated from mean A-B and B-A data.
(§13) Three control compounds are screened alongside the test compounds, atenolol (human absorption 50%), propranolol (human absorption 90%) and talinolol (a substrate for […]

For series [3], the system named is Caco-2 cells. Nature of the series: Caco-2 permeability (bi-directional). The series is classed as in vitro ADME. The procedure: as §1, §2, §3, §4, §5, §6, §7, §8, §9, §10, §11, §12, §13
In general terms: Passage across Caco-2 layers is used to estimate intestinal permeability.

T1 sequence (Q12809 whole entry): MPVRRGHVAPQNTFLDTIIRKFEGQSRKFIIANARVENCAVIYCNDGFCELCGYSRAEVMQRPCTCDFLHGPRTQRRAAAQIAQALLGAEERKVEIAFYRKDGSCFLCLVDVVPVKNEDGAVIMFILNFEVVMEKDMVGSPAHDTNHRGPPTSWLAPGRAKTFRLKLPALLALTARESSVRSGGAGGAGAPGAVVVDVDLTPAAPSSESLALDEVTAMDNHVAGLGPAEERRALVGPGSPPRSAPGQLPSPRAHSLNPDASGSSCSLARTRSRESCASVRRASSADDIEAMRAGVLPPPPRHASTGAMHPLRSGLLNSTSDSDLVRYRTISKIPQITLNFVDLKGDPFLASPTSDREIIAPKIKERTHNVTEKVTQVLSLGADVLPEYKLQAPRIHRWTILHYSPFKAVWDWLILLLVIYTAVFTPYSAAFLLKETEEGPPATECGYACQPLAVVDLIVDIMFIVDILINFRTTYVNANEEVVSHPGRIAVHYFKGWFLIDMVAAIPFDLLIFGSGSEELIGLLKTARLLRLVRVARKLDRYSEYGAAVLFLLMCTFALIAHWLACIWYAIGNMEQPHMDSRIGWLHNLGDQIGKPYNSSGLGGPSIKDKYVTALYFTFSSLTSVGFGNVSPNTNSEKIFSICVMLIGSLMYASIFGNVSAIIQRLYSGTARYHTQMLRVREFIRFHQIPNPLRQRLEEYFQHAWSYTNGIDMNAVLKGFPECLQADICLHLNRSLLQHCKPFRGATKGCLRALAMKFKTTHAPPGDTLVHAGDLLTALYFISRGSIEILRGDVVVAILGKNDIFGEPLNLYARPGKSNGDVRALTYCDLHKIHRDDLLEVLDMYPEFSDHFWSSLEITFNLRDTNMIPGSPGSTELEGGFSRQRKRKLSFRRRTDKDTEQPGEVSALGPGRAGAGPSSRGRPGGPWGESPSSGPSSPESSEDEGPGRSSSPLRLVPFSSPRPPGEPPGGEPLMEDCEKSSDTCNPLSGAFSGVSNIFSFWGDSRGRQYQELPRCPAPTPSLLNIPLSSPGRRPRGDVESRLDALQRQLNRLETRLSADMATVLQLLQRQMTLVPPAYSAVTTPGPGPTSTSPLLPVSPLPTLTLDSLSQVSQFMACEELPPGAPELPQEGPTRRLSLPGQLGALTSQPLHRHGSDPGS

Usually IC50 stands for the concentration that inhibits the measured activity by half. The Papp A→B is the apparent permeability from the apical to the basolateral side of a cell layer. A high value points to ready permeation. For `COC(=O)c1cc(OC[C@H](COS(=O)(=O)[O-])OS(=O)(=O)[O-])ccc1OCCCCOS(=O)(=O)[O-].[Na+].[Na+].[Na+]` [Compound R-10, sodium (R)-3-(3-(methoxycarbonyl)-4-(4-(sulfonatooxy)butoxy)phenoxy)propane-1,2-diyl bis(sulfate)], the IC50 at 300 s in series [1] (human, pH 7.2) is > 25 µM. Also, the Papp A→B at 2 h, 10 µM in series [2] amounted to 9.31 nm/s. Besides, the “Caco-2 cell permeability levels” value in series [3] is “low or not detected”. In series [3] (10 µM, 120 min), the “Caco-2 (B2A Papp)” value is reported as “Not detected”.

As for `O=C([O-])c1cc(OC[C@H](COS(=O)(=O)[O-])OS(=O)(=O)[O-])ccc1OCC(COS(=O)(=O)[O-])OS(=O)(=O)[O-].[Na+].[Na+].[Na+].[Na+].[Na+]` (mixture of isomers) [β-5, sodium 5-((R)-2,3-bis(sulfonatooxy)propoxy)-2-(2,3-bis(sulfonatooxy)propoxy)benzoate], in series [1], the concentration for half-maximal inhibition (IC50) was > 25 µM. Further, in series [3], the “Caco-2 cell permeability levels” value is reported as “low or not detected”. Besides, the “Caco-2 (A2B Papp)” value in series [3] (A2B, 10 µM, 120 min) was “Not detected”. For the same compound, the “Caco-2 (B2A Papp)” value in series [3] (10 µM, 120 min) was “Not detected”.

Source of the values: publication PMC8152814, “The modulatory role of sulfated and non-sulfated small molecule heparan sulfate-glycomimetics in endothelial dysfunction: absolute structural clarification, molecular docking and simulated dynamics, SAR analyses and ADMET studies” (RSC Medicinal Chemistry, 2021).
